Results as given in patent US5733749A, “Glycerol phosphatase with stereo-specific activity” (priority 1995, dated 1998).
Entries after “also recorded” stand apart in the source; their conditions may differ.

Columns and labels:
B. licheniformis D-GPase [1] = molecular target: T1, B. licheniformis D-GPase (Bacillus licheniformis, UniProt Q65CZ1); assay: Effect of ADP and inorganic phosphate on D-GPase activity; type: biochemical
T1 construct: about 25 kDa by gel filtration
T1 sequence (Q65CZ1 1-216): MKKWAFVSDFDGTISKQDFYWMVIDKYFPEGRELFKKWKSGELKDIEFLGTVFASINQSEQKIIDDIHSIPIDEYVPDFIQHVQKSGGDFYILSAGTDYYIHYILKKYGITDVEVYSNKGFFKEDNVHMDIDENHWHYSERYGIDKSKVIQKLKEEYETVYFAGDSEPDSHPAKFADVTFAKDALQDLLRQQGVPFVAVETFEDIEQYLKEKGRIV
Procedure: GPase activity was measured by combining cell extract and the appropriate stereoisomer(s) (DL or L) of GP, incubating the mixture, terminating the reaction with acid, and determining the glycerol content by high-performance liquid chromatography (HPLC) analysis. Assay mixtures consisted of, in a total of 500 μl:25 mM MgCl2 ; 25-50 mM PIPES [piperazine-N,N'-bis(2-ethanesulfonic acid)], pH 7.1; 25-100 mM substrate; and the required volume of cell extract. Incubations were carried out at 37° C. for 30-150 min in microcentrifuge tubes, then 72 μl of 20% trichloroacetic acid (TCA) was added (2.5% final) to each tube to stop the reaction. The samples were spun in a microcentrifuge to remove any precipitate, and the supernatants were filtered through Supor-200 0.2 μm membrane filters (Gelman Sciences, Ann Arbor, Mich.) and analyzed for glycerol by HPLC. Assays for dephosphorylation of other compounds were also analyzed by HPLC (for the dephosphorylated compound) and carried out in the same way as the assays with GP as substrate. Assays for p-nitrophenyl phosphate (PNPP) hydrolysis were the same as with GP as substrate but were carried out with 1.5 mM PNPP in microtiter plates, and absorbance at 420 nm was used to measure the extent of hydrolysis of PNPP. Calf intestinal alkaline phosphatase was used as a standard to ensure that PNPP could be hydrolyzed under the conditions of the assay.
Assays that were analyzed for inorganic phosphate instead of glycerol were carried out using the procedure of Marsh, Biochim. […] Blanks were identical assays except without substrate.

B. licheniformis D-GPase [2] = molecular target: T1, B. licheniformis D-GPase; type: biochemical; conditions: for Relative activity: chloride of the cation added at 25 mM
Procedure: (§1) GPase activity was measured by combining cell extract and the appropriate stereoisomer(s) (DL or L) of GP, incubating the mixture, terminating the reaction with acid, and determining the glycerol content by high-performance liquid chromatography (HPLC) analysis. Assay mixtures consisted of, in a total of 500 μl:25 mM MgCl2; 25-50 mM PIPES [piperazine-N,N'-bis(2-ethanesulfonic acid)], pH 7.1; 25-100 mM substrate; and the required volume of cell extract. Incubations were carried out at 37° C. for 30-150 min in microcentrifuge tubes, then 72 μl of 20% trichloroacetic acid (TCA) was added (2.5% final) to each tube to stop the reaction. The samples were spun in a microcentrifuge to remove any precipitate, and the supernatants were filtered through Supor-200 0.2 μm membrane filters (Gelman Sciences, Ann Arbor, Mich.) and analyzed for glycerol by HPLC. Assays for dephosphorylation of other compounds were also analyzed by HPLC (for the dephosphorylated compound) and carried out in the same way as the assays with GP as substrate. Assays for p-nitrophenyl phosphate (PNPP) hydrolysis were the same as with GP as substrate but were carried out with 1.5 mM PNPP in microtiter plates, and absorbance at 420 nm was used to measure the extent of hydrolysis of PNPP. Calf intestinal alkaline phosphatase was used as a standard to ensure that PNPP could be hydrolyzed under the conditions of the assay.
L-GPases reported in the literature require divalent magnesium. Therefore, the inventors tested the effects of addition of the chlorides of three divalent cations: magnesium, manganese, and calcium (25 mM each).

B. licheniformis D-GPase [3] = molecular target: T1, B. licheniformis D-GPase; assay: GPase activity assay, substrate specificity (HPLC of glycerol or dephosphorylated compound); type: biochemical; conditions: PNPP at 1.5 mM read at 420 nm
Procedure: as §1
Glycerol in fermentation broths and assay mixtures was measured by HPLC. The mobile phase was 0.01N H2 SO4, run at a flow rate of 0.6 ml/min through an Aminex HPX-87H organic acids column (Bio-Rad, Hercules, Calif.), which was maintained at 65° C. Samples were injected by a model AS-100 autosampler, and chromatograms were printed by a model 3392A integrator; the detector was a model 1770 differential refractometer (all from Bio-Rad).
Upon the finding that a GPase was present in B. licheniformis extracts, the inventors sought to determine which GP isomers are dephosphorylated by the enzyme and whether some other common phosphorylated metabolites can also be accepted as substrates. Because the initial assays were conducted with DL-GP, which also contained a small amount of β-GP, the specificity of the enzyme was unclear. HPLC chromatograms of reactions were run with crude cell extract and either DL-GP, L-GP, or β-GP. […] The low activity with pure β-GP rules out the possibility that the activity seen in assays with DL-GP is due to the presence of β-GP as an impurity in the DL-GP preparation.

[S. cerevisiae] α-GPase = Gancedo et al. 1968; cited from earlier work
carbonic anhydrase = conditions: read-out: Km of carbonic anhydrase for carbon dioxide; cited from earlier work
β-galactosidase = conditions: read-out: Km of β-galactosidase for lactose; cited from earlier work
threonine deaminase = conditions: cited from earlier work

## Nc1ncnc2c1ncn2[C@@H]1O[C@H](COP(=O)(O)OP(=O)(O)O)[C@@H](O)[C@H]1O [ADP]
B. licheniformis D-GPase [1]; 9 mM ADP added to the assays
  effect on specificity and level of D-GPase activity: neither the specificity nor the level of activity of D-GPase was affected

## [Ca+2] [Ca^2+]
B. licheniformis D-GPase [2]; 25 mM chloride
  inhibition of D-GPase activity by the cation: does not inhibit D-GPase activity
B. licheniformis D-GPase [2]
  Relative activity: 0.08

## O=C(O)[C@H](O)COP(=O)(O)O [D-3-phosphoglyceric acid]
B. licheniformis D-GPase [3]
  accepted as substrate / hydrolysis by D-GPase: little or no hydrolysis; also recorded: does not accept

## O=P(O)(O)OC[C@@H](O)CO [D-GP, D-α-glycerophosphate]
[S. cerevisiae] α-GPase
  efficiency of α-GPase on D-GP relative to that on L-GP: 1/30

## O=P(O)(O)OC[C@H](O)CO [L-α-glycerophosphate]
B. licheniformis D-GPase [3]
  accepted as substrate / hydrolysis by D-GPase: does not accept

## [Mg+2] [Mg^2+]
B. licheniformis D-GPase [2]
  Relative activity: 1.00

## [Mn+2] [Mn^2+]
B. licheniformis D-GPase [2]
  Relative activity: 0.53

## O=C=O [carbon dioxide]
Carbonic anhydrase
  Km: ~8 mM

## O=C(CO)COP(=O)(O)O [dihydroxyacetone phosphate]
B. licheniformis D-GPase [3]; phosphate
  accepted as substrate / hydrolysis by D-GPase: little or no hydrolysis; also recorded: does not accept

## O=P(O)(O)OC[C@H]1OC(O)[C@H](O)[C@@H](O)[C@@H]1O (some centres unmarked) [glucose-6-phosphate]
B. licheniformis D-GPase [3]
  accepted as substrate / hydrolysis by D-GPase: little or no hydrolysis; also recorded: does not accept

## O=P(O)(O)O [inorganic phosphate]
B. licheniformis D-GPase [1]; in the presence of 25 mM inorganic phosphate, in vitro hydrolysis of D-GP
  D-GPase activity retained: 75%
B. licheniformis D-GPase [1]; inorganic phosphate present in assays of B. licheniformis extracts
  inhibition of D-GPase activity: did not acutely inhibit

## OC[C@H]1O[C@@H](O[C@H]2[C@H](O)[C@@H](O)C(O)O[C@@H]2CO)[C@H](O)[C@@H](O)[C@H]1O (some centres unmarked) [lactose]
β-galactosidase
  Km: ~4 mM

## C[C@@H](O)[C@H](N)C(=O)O [threonine]
Threonine deaminase
  Km: ~5 mM

## O=P(O)(O)OC(CO)CO [β-glycerophosphate]
B. licheniformis D-GPase [3]
  accepted as substrate / hydrolysis by D-GPase: does not accept

## D-glyceraldehyde phosphate
B. licheniformis D-GPase [3]; phosphate
  accepted as substrate / hydrolysis by D-GPase: little or no hydrolysis; also recorded: does not accept
